According to patent US20220267380A1, “Glycopeptides Increasing Lipid Synthesis” (TFCHEM, priority 2019, published 2022):

Tested on: normal human dermal fibroblasts (NHDF)
Experiment: Gene expression in NHDF, full transcriptome analysis with Affymetrix U219 microarray
Format: cell-based
Settings: NHDF, 10 mg/ml, 24 h
[1] = relative expression adjusted to detection limit (<20)

SMILES: N[C@@H](CCCCNCC(F)(F)[C@]1(O)O[C@H](CO)[C@H](O)[C@H](O)[C@H]1O)C(=O)O [Compound 3]
- Fold change, FADS1 (vs control, Affymetrix probe set 11752670_a_at): 3.55
- Fold change, TPP1 (vs control, Affymetrix probe set 11753248_a_at): 2.05
- Fold change, GBA///GBAP1 (vs control, Affymetrix probe set 11753439_a_at): 2.35
- Fold change, GBA (vs control, Affymetrix probe set 11753440_x_at): 2.30
- Fold change, GBA///GBAP1 (vs control, Affymetrix probe set 11754819_x_at): 2.08
- Fold change, LPCAT3 (vs control, Affymetrix probe set 11755123_x_at): 2.13
- Fold change, FADS1 (vs control, Affymetrix probe set 11755251_x_at): 3.75
- Fold change, LPCAT3 (vs control, Affymetrix probe set 11757008_a_at): 2.39
- Fold change, TPP1 (vs control, Affymetrix probe set 11757469_s_at): 2.14
- Fold change, HSD17B14 (vs control, Affymetrix probe set 11757575_x_at): 2.92
- Fold change, TM7SF2 (vs control, Affymetrix probe set 11762755_x_at): 2.10
- REadj2, ACOT1///ACOT2 [1]: 462.96
- REadj2, APOD [1]: 154.78
- REadj2, DHCR7 [1]: 1097.58
- REadj2, FADS2 [1]: 263.98
- REadj2, GBAP1 [1]: 186.37
- REadj2, HACD1 [1]: 674.65
- REadj2, HMGCS1 [1]: 1170.64
- REadj2, LRP8 [1]: 125.76
- REadj2, MVD [1]: 534.91
- REadj2, NCOR1 [1]: 68.44
- REadj2, NEU1 [1]: 722.33
- REadj2, NPC1 [1]: 154.34
- REadj2, PHLDB2 [1]: 66.17
- REadj2, PHYH [1]: 813.79
- REadj2, PLA2G15 [1]: 82.36
- REadj2, PLA2G16 [1]: 222.24
- REadj2, PRKAB2 [1]: 21.07
- REadj2, PTGDS [1]: 1080.74
- REadj2, SOAT1 [1]: 393.50
- REadj2, SPHK1 [1]: 195.74
- REadj2, SREBF1 [1]: 312.15
- REadj2, TXNRD1 [1]: 1483.80
- REadj2, VAC14 [1]: 105.84
- REadj2, SCD (relative expression adjusted to detection limit (<20), Affymetrix probe set 11715561_s_at): 634.95
- REadj2, SCD (relative expression adjusted to detection limit (<20), Affymetrix probe set 11715562_x_at): 722.36
- REadj2, SCD (relative expression adjusted to detection limit (<20), Affymetrix probe set 11715563_s_at): 558.17
- REadj2, G6PD (relative expression adjusted to detection limit (<20), Affymetrix probe set 11716292_a_at): 348.08
- REadj2, G6PD (relative expression adjusted to detection limit (<20), Affymetrix probe set 11716293_x_at): 239.53
- REadj2, INSIG1 (relative expression adjusted to detection limit (<20), Affymetrix probe set 11716338_a_at): 1101.68
- REadj2, INSIG1 (relative expression adjusted to detection limit (<20), Affymetrix probe set 11716339_a_at): 1249.89
- REadj2, PPT1 (relative expression adjusted to detection limit (<20), Affymetrix probe set 11716533_a_at): 249.91
- REadj2, EBP (relative expression adjusted to detection limit (<20), Affymetrix probe set 11717859_a_at): 1025.83
- REadj2, HSD17B14 (relative expression adjusted to detection limit (<20), Affymetrix probe set 11720588_a_at): 154.64
- REadj2, SERINC2 (relative expression adjusted to detection limit (<20), Affymetrix probe set 11721046_a_at): 462.86
- REadj2, ME1 (relative expression adjusted to detection limit (<20), Affymetrix probe set 11726265_at): 1130.68
- REadj2, CHKA (relative expression adjusted to detection limit (<20), Affymetrix probe set 11736285_a_at): 137.49
- REadj2, CHKA (relative expression adjusted to detection limit (<20), Affymetrix probe set 11736286_a_at): 138.86
- REadj2, ASAH1 (relative expression adjusted to detection limit (<20), Affymetrix probe set 11740582_a_at): 1292.95
- REadj2, PPT1 (relative expression adjusted to detection limit (<20), Affymetrix probe set 11742107_a_at): 289.70
- REadj2, ASAH1 (relative expression adjusted to detection limit (<20), Affymetrix probe set 11743547_a_at): 1038.22
- REadj2, PCYT2 (relative expression adjusted to detection limit (<20), Affymetrix probe set 11744044_s_at): 239.50
- REadj2, FADS1 (relative expression adjusted to detection limit (<20), Affymetrix probe set 11745459_a_at): 1891.83
- REadj2, LDLR (relative expression adjusted to detection limit (<20), Affymetrix probe set 11746974_a_at): 357.86
- REadj2, PCYT2 (relative expression adjusted to detection limit (<20), Affymetrix probe set 11747322_s_at): 216.32
- REadj2, LDLR (relative expression adjusted to detection limit (<20), Affymetrix probe set 11748045_x_at): 380.34
- REadj2, SERINC2 (relative expression adjusted to detection limit (<20), Affymetrix probe set 11748053_x_at): 342.33
- REadj2, TM7SF2 (relative expression adjusted to detection limit (<20), Affymetrix probe set 11748279_s_at): 91.54
- REadj2, EBP (relative expression adjusted to detection limit (<20), Affymetrix probe set 11749332_x_at): 907.86
- REadj2, ABHD4 (relative expression adjusted to detection limit (<20), Affymetrix probe set 11749343_a_at): 66.31
- REadj2, ABHD4 (relative expression adjusted to detection limit (<20), Affymetrix probe set 11749376_a_at): 69.48
- REadj2, ME1 (relative expression adjusted to detection limit (<20), Affymetrix probe set 11750913_a_at): 861.69
- REadj2, GBA (relative expression adjusted to detection limit (<20), Affymetrix probe set 11750975_x_at): 250.68
- REadj2, GBA (relative expression adjusted to detection limit (<20), Affymetrix probe set 11751086_x_at): 255.53
- REadj2, DHCR24 (relative expression adjusted to detection limit (<20), Affymetrix probe set 11751337_a_at): 191.39
- REadj2, DHCR24 (relative expression adjusted to detection limit (<20), Affymetrix probe set 11751338_x_at): 364.97
- REadj2, G6PD (relative expression adjusted to detection limit (<20), Affymetrix probe set 11752486_a_at): 224.35
- REadj2, FADS1 (relative expression adjusted to detection limit (<20), Affymetrix probe set 11752670_a_at): 3012.88
- REadj2, GBA (relative expression adjusted to detection limit (<20), Affymetrix probe set 11753440_x_at): 139.49
- REadj2, FADS1 (relative expression adjusted to detection limit (<20), Affymetrix probe set 11755251_x_at): 1908.34
- REadj2, HSD17B14 (relative expression adjusted to detection limit (<20), Affymetrix probe set 11757575_x_at): 89.08
- REadj2, TM7SF2 (relative expression adjusted to detection limit (<20), Affymetrix probe set 11762755_x_at): 61.24
